Data as given in ChEMBL document CHEMBL5385881, “Design, synthesis, and discovery of Eudistomin Y derivatives as lysosome-targeted antiproliferation agents” (Eur J Med Chem, 2023).

How the values were obtained:
Type in all cases: functional, cell-based
SGC-7901 = assay: Cytotoxicity against human SGC-7901 cells assessed as cell inhibition measured after 72 hrs by MTT assay; details: SGC-7901, 72 h
MDA-MB-231 = assay: Cytotoxicity against human MDA-MB-231 cells assessed as cell inhibition measured after 72 hrs by MTT assay; details: MDA-MB-231, 72 h
LS180 = assay: Cytotoxicity against human LS180 cells assessed as cell inhibition measured after 72 hrs by MTT assay; details: LS180, 72 h
HepG2 = assay: Cytotoxicity against human HepG2 cells assessed as cell inhibition measured after 72 hrs by MTT assay; details: HepG2, 72 h
A549 = assay: Cytotoxicity against human A549 cells assessed as cell inhibition measured after 72 hrs by MTT assay; details: A549, 72 h

Which results are given for `O=C(c1ccccc1)c1nccc2c3ccccc3n(Cc3ccc([N+](=O)[O-])cc3)c12`?
IC50 (SGC-7901): 7.1 µM; IC50 (MDA-MB-231): 31.4 µM; IC50 (LS180): 4.4 µM; IC50 (HepG2): 18.7 µM; IC50 (A549): 10.2 µM

What does the source list for `O=c1[nH]cc(F)c(=O)[nH]1` [FLUOROURACIL]?
IC50 (SGC-7901): 13.1 µM; IC50 (MDA-MB-231): 67.5 µM; IC50 (LS180): 3.4 µM; IC50 (A549): 1.3 µM

Which results are given for `Cn1c2ccccc2c2ccnc(C(=O)c3ccc(OCc4ccccc4)cc3)c21`?
IC50 (SGC-7901): 40.2 µM; IC50 (MDA-MB-231): 19.8 µM; IC50 (LS180): 33.6 µM; IC50 (HepG2): 62.4 µM; IC50 (A549): 34.2 µM

Which IC50 (SGC-7901) does the source give for `O=C(c1ccc(O)cc1)c1nccc2c1[nH]c1ccccc12` [EUDISTOMIN Y1] here?
Its IC50 is 119 µM.

What about the IC50 (MDA-MB-231) of the same compound?
Its IC50 is 129 µM.

And the IC50 (LS180)?
Its IC50 is 89.8 µM.

What about the IC50 (HepG2) of the same compound?
The IC50 was 126 µM.

And the IC50 (A549)?
The IC50 was 71.9 µM.

With `Cc1cccc(Cn2c3ccccc3c3ccnc(C(=O)c4ccccc4)c32)c1` as the compound, how does the IC50 (SGC-7901) read?
The IC50 was 25.4 µM.

What about the IC50 (MDA-MB-231) of the same compound?
Its IC50 is 56.5 µM.

And the IC50 (LS180)?
Its IC50 is 19 µM.

What about the IC50 (HepG2) of the same compound?
The IC50 was 31.8 µM.

What about the IC50 (A549) of the same compound?
The IC50 was 33.6 µM.
